38 compounds from patent US10959986B2, “Inhibitors of indoleamine 2,3-dioxygenase and methods of their use” (BRISTOL-MYERS SQUIBB COMPANY, priority 2018, dated 2021) can be followed below.

Like-named read-outs stand apart in the source and are kept apart here. Bounds are passed on as bounds.

This test addresses T1, indoleamine 2,3-dioxygenase (IDO) (Homo sapiens, UniProt P14902).
T1 construct: media containing IFNγ (#285-IF/CF, R&D Systems) at a final concentration of 25 ng/mL; endogenous in cells; host or cells: HeLa (ATCC CCL-2), induced with IFN-gamma
The test is described as follows: HeLa cell-based indoleamine 2,3-dioxygenase (IDO) assay. Particulars: HeLa cells with IFNγ 25 ng/mL, 48 hour incubation, kynurenine production. The protocol: Assessment of Inhibitor Activity in HeLa Cell-Based Indoleamine 2,3-Dioxygenase (IDO) Assay.
HeLa (ATCCR CCL-2) cells were obtained from the ATCC® and cultured in Dulbecco's Modified Eagle Medium supplemented with 4.5 g/L glucose, […] L-glutamine and […] (#10-013-CV, Corning), 2 mM L-alanyl-L-glutamine dipeptide (#35050-061, Gibco), 100U/mL penicillin, 100 µg/mL streptomycin (#SV30010, HyClone) and 10% fetal bovine serum (#SH30071.03 HyClone). Cells were maintained in a humidified incubator at 37° C. in 5% CO2.
IDO activity was assessed as a function of kynurenine production as follows: HeLa cells were seeded in a 96-well culture plate at a density of 5,000 cells/well and allowed to equilibrate overnight. After 24 hours, the media was aspirated and replaced with media containing IFNγ (#285-IF/CF, R&D Systems) at a final concentration of 25 ng/mL. A serial dilution of each test compound was added to the cells in a total volume of 200 μL of culture medium. After a further 48 hour incubation, 170 μL of supernatant was transferred from each well to a fresh 96-well plate. 12.1 μL of 6. IN trichloroacetic acid (#T0699, Sigma-Aldrich) was added to each well and mixed, followed by incubation at 65° C. for 20 minutes to hydrolyze N-formylkynurenine, the product of indoleamine 2,3-dioxygenase, to kynurenine. The reaction mixture was then centrifuged for 10 mins at 500×g to sediment the precipitate. 100 μL of the supernatant was transferred from each well to a fresh 96-well plate. 100 μl of 2% (w/v) p-dimethylaminobenzaldehyde (#15647-7, Sigma-Aldrich) in acetic acid (#A6283, Sigma-Aldrich) was added to each well mixed and incubated at room temperature for 20 mins. Kynurenine concentrations were determined by measuring absorbance at 480 nm and calibrating against an L-kynurenine (#K8625, Sigma-Aldrich) standard curve using a SPECTRAMAX® M2e microplate reader (Molecular Devices). The percentage activity at each inhibitor concentration was determined and IC50 values assessed using nonlinear regression.

Where [1] appears, read: read-out: IDO Hela IC50 potency class (A < 50, B < 250, C < 2000).

As usually defined, the IC50 is the midpoint of a concentration-inhibition curve.

T1 sequence (P14902 whole entry): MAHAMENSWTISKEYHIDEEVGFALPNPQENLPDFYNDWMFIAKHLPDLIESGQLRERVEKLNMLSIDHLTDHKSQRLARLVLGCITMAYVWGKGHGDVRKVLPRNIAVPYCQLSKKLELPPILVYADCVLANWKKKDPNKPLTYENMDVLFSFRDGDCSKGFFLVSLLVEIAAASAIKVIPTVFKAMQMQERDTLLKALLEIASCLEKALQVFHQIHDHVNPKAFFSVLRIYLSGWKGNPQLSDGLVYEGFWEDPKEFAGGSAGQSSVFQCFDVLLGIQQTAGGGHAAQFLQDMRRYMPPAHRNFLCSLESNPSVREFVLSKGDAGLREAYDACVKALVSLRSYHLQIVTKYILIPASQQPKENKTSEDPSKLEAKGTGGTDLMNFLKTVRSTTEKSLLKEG

For `COC[C@H](CC(=O)O)c1ccc(-c2ccc3c(c2)CCO3)c(Nc2ccc(C#N)cc2)c1` (single isomer, unassigned) [Example 40], the IC50 (read-out: IDO Hela IC50) was 0.09 µM.
As for `COC[C@H](CC(=O)O)c1ccc(-c2cncnc2)c(Nc2ccc(C#N)cc2)c1` (single isomer, unassigned) [Example 43], the IC50 is, setting by setting: (read-out: IDO Hela IC50) ≥ 1 µM; under setting [1], 0.25 to 2 µM.
In the case of `COC[C@H](CC(=O)O)c1ccc(-c2cnn(Cc3ccccc3)c2)c(Nc2ccc(C#N)cc2)c1` (single isomer, unassigned) [Example 44], where the note is “read-out: IDO Hela IC50”, the IC50 worked out at 0.45 µM.
With `COC[C@H](CC(=O)O)c1ccc(-c2cnn(Cc3ccc(OC)cc3)c2)c(Nc2ccc(C#N)cc2)c1` (single isomer, unassigned) [Example 45], where the note is “read-out: IDO Hela IC50”, the IC50 stood at 0.05 µM.
Take `CCOc1ncc(Nc2cc([C@H](CC)CC(=O)O)ccc2-c2ccoc2)cn1` (single isomer, unassigned) [Example 46]: for the setting “read-out: IDO Hela IC50”, the half-maximal inhibitory concentration (IC50) was 0.04 µM.
Turning to `CCOc1ncc(Nc2cc([C@H](CC)CC(=O)O)ccc2-c2cnn(Cc3ccc(OC)cc3)c2)cn1` (single isomer, unassigned) [Example 47], under “read-out: IDO Hela IC50”, the IC50 is 0.01 µM.
For the compound `CCOc1ncc(Nc2cc([C@H](CC)CC(=O)O)ccc2-c2cnn(-c3ccc(F)cc3)c2)cn1` (single isomer, unassigned) [Example 48], the IC50 (read-out: IDO Hela IC50) was 0.34 µM.
On the same count and under the same terms, in the case of `CCOc1ncc(Nc2cc(C(CC)CC(=O)O)ccc2-c2ccc(OC)c(F)c2)cn1` (single isomer, unassigned) [Example 49] it was 0.03 µM.
In the case of `CCOc1ncc(Nc2cc([C@H](CC)CC(=O)O)ccc2-c2cccc3[nH]ncc23)cn1` (single isomer, unassigned) [Example 50], the IC50 is ≥ 1 µM (read-out: IDO Hela IC50) and 0.25 to 2 µM under setting [1].
With `CCOc1ncc(Nc2cc([C@H](CC)CC(=O)O)ccc2-c2ccc3c(cnn3C)c2)cn1` (single isomer, unassigned) [Example 51], for the setting “read-out: IDO Hela IC50”, the IC50 was found to be 0.15 µM.
As for `CCOc1ncc(Nc2cc([C@H](CC)CC(=O)O)ccc2-c2ccncc2F)cn1` (single isomer, unassigned) [Example 52], the IC50 reads like this: (read-out: IDO Hela IC50) ≥ 1 µM; under setting [1], 0.25 to 2 µM.
Turning to `CCOc1ncc(Nc2cc([C@H](CC)CC(=O)O)ccc2-c2ccc(OC)cc2F)cn1` (single isomer, unassigned) [Example 53], the IC50 (read-out: IDO Hela IC50) is 0.03 µM.
On the same count and under the same terms, in the case of `CCOc1ncc(Nc2cc([C@H](CC)CC(=O)O)ccc2-c2c(C)noc2C)cn1` (single isomer, unassigned) [Example 54] it was 0.09 µM.
For the compound `CCOc1ncc(Nc2cc([C@H](CC)CC(=O)O)ccc2-c2cnn(CCN3CCOCC3)c2)cn1` (single isomer, unassigned) [Example 55], the IC50 is, setting by setting: (read-out: IDO Hela IC50) ≥ 1 µM; under setting [1], 0.25 to 2 µM.
As for `CCOc1ncc(Nc2cc([C@H](CC)CC(=O)O)ccc2C2=CC3CCC(C2)N3C(=O)OC(C)(C)C)cn1` (single isomer, unassigned) [Example 56], the IC50 (read-out: IDO Hela IC50) amounted to 0.39 µM.
`CCc1ncc(Nc2cc([C@H](CC)CC(=O)O)ccc2-c2sc(C)nc2C)cn1` (single isomer, unassigned) [Example 57]: where the note is “read-out: IDO Hela IC50”, the IC50 was determined as 0.11 µM.
For `CCc1ncc(Nc2cc([C@@H](CC)CC(=O)O)ccc2-c2sc(C)nc2C)cn1` (single isomer, unassigned) [Example 58], the IC50 (read-out: IDO Hela IC50) came out at 0.39 µM.
On to `COC[C@@H](CC(=O)O)c1ccc(-c2sc(C)nc2C)c(Nc2ccc(C#N)cc2)c1` (single isomer, unassigned) [Example 59], for which, under “read-out: IDO Hela IC50”, the IC50 amounted to 0.22 µM.
As to `CCOc1ncc(Nc2cc([C@H](CC)CC(=O)O)ccc2-c2sc(C)nc2C)cn1` (single isomer, unassigned) [Example 61], for the setting “read-out: IDO Hela IC50”, the IC50 was 0.01 µM.
Turning to `CCOc1ncc(Nc2cc([C@H](CC)CC(=O)O)ccc2-c2ccc(C#N)cn2)cn1` (single isomer, unassigned) [Example 62], for the setting “read-out: IDO Hela IC50”, the IC50 stood at 0.89 µM.
On to `CCOc1ncc(Nc2cc([C@H](CC)CC(=O)O)ccc2-c2ncc(F)cn2)cn1` (single isomer, unassigned) [Example 63], for which the 50% inhibitory concentration (IC50) (read-out: IDO Hela IC50) was found to be 0.7 µM.
Turning to `CCOc1ncc(Nc2cc([C@H](CC)CC(=O)O)ccc2-c2cnc(OCC)nc2)cn1` (single isomer, unassigned) [Example 64], the IC50 reads like this: (read-out: IDO Hela IC50) ≥ 1 µM; under setting [1], 0.25 to 2 µM.
With `CCOc1ncc(Nc2cc([C@H](CC)CC(=O)O)ccc2-c2ccc3nc(C)oc3c2)cn1` (single isomer, unassigned) [Example 65], the IC50 was ≥ 1 µM (read-out: IDO Hela IC50) and 0.25 to 2 µM under setting [1].
On to `CCOc1ncc(Nc2cc([C@H](CC)CC(=O)O)ccc2-c2cccc(C(F)F)n2)cn1` (single isomer, unassigned) [Example 66], for which the IC50 (read-out: IDO Hela IC50) was found to be 0.75 µM.
Consider `CCOc1ncc(Nc2cc([C@H](CC)CC(=O)O)ccc2-c2c[nH]c3cnccc23)cn1` (single isomer, unassigned) [Example 67], for which the IC50 reads like this: (read-out: IDO Hela IC50) ≥ 1 µM; under setting [1], 0.25 to 2 µM.
`CCOc1ncc(Nc2cc([C@H](CC)CC(=O)O)ccc2-c2ccc3nc(C)sc3c2)cn1` (single isomer, unassigned) [Example 68]: the IC50 (read-out: IDO Hela IC50) is 0.5 µM.
Turning to `CCOc1ncc(Nc2cc([C@H](CC)CC(=O)O)ccc2-c2ncc(C)cn2)cn1` (single isomer, unassigned) [Example 69], the IC50 (read-out: IDO Hela IC50) was 0.11 µM.
Regarding `CCOc1ncc(Nc2cc([C@H](CC)CC(=O)O)ccc2-c2ccc(Cl)cc2F)cn1` (single isomer, unassigned) [Example 70], the IC50 (read-out: IDO Hela IC50) came out at 0.23 µM.
As for `CCOc1ncc(Nc2cc([C@H](CC)CC(=O)O)ccc2-c2ccc(Cl)cc2)cn1` (single isomer, unassigned) [Example 71], the IC50 (read-out: IDO Hela IC50) is 0.11 µM.
On the same count and under the same terms, in the case of `CCOc1ncc(Nc2cc([C@H](CC)CC(=O)O)ccc2-c2ccc(Cl)c(F)c2)cn1` (single isomer, unassigned) [Example 72] it was 0.21 µM.
For `CCOc1cnc(-c2ccc([C@H](CC)CC(=O)O)cc2Nc2cnc(OCC)nc2)cn1` (single isomer, unassigned) [Example 74], the IC50 (read-out: IDO Hela IC50) stood at 0.45 µM.
As to `CCOc1ncc(Nc2cc([C@H](CC)CC(=O)O)ccc2-c2c(C)n[nH]c2C)cn1` (single isomer, unassigned) [Example 75], the IC50 runs as follows: (read-out: IDO Hela IC50) ≥ 1 µM; under setting [1], 0.25 to 2 µM.
As to `CCOc1ncc(Nc2cc([C@H](CC)CC(=O)O)ccc2-c2nc3ccccc3s2)cn1` (single isomer, unassigned) [Example 76], the IC50 (read-out: IDO Hela IC50) was determined as 0.95 µM.
Take `CCOc1ncc(Nc2cc([C@H](CC)CC(=O)O)ccc2-c2cn3ccccc3n2)cn1` (single isomer, unassigned) [Example 77]: the IC50 was ≥ 1 µM (read-out: IDO Hela IC50) and 0.25 to 2 µM under setting [1].
`CCOc1ncc(Nc2cc([C@H](CC)CC(=O)O)ccc2-c2ccc3nonc3c2)cn1` (single isomer, unassigned) [Example 78]: the IC50 (read-out: IDO Hela IC50) is ≥ 1 µM and the IC50 under setting [1] was in the range of 0.25 to 2 µM.
Turning to `CCOc1ncc(Nc2cc([C@H](CC)CC(=O)O)ccc2-c2ccn3nccc3n2)cn1` (single isomer, unassigned) [Example 79], under “read-out: IDO Hela IC50”, the IC50 was 0.4 µM.
For the compound `CCOc1ncc(Nc2cc([C@H](CC)CC(=O)O)ccc2-c2ccc(C#N)c(OC)c2)cn1` (single isomer, unassigned) [Example 80], the IC50 (read-out: IDO Hela IC50) was ≥ 1 µM and the IC50 under setting [1] was 0.25 to 2 µM.
In the case of `CCOc1ncc(Nc2cc([C@H](CC)CC(=O)O)ccc2-c2c(C)nn(C)c2C)cn1` (single isomer, unassigned) [Example 81], the IC50 (read-out: IDO Hela IC50) was 0.6 µM.
